# Reference: patent publication US6737441B2, “Treatment of helicobacter with isothiocyanates” (priority 2000, dated 2004)
# Like-named read-outs stand apart in the source and are kept apart here.
# Columns and labels:
# [1] = test system: amoxicillin/clarithromycin/metronidazole - susceptible strains of Helicobacter pylori; assay: Bacteriostatic activity (MIC) against susceptible strains; assay type: cell-based
# [2] = test system: clarithromycin and/or metronidazole - intermediate or resistant strains of Helicobacter pylori; assay: Bacteriostatic activity (MIC) against intermediate or resistant strains; assay type: cell-based
# [3] = in cell culture; cited from earlier work
# [4] = Helicobacter pylori, H. pylori strain no 1, read-out: MIC
# [5] = Helicobacter pylori, H. pylori strain no 4, read-out: MIC
# [6] = Helicobacter pylori, H. pylori strain no 5, read-out: MIC
# [7] = Helicobacter pylori, H. pylori strain no 6, read-out: MIC
# [8] = Helicobacter pylori, H. pylori strain no 7, read-out: MIC
# [9] = Helicobacter pylori, H. pylori strain no 8, read-out: MIC
# [10] = Helicobacter pylori, H. pylori strain no 9, read-out: MIC
# [11] = Helicobacter pylori, H. pylori strain no 10, read-out: MIC
# [12] = Helicobacter pylori, H. pylori strain no 11, read-out: MIC
# [13] = Helicobacter pylori, H. pylori strain no 12, read-out: MIC
# [14] = Helicobacter pylori, H. pylori strain no 13, read-out: MIC
# [15] = Helicobacter pylori, H. pylori strain no 14, read-out: MIC
# [16] = Helicobacter pylori, H. pylori strain no 15, read-out: MIC
# [17] = Helicobacter pylori, H. pylori strain no 16, read-out: MIC
# [18] = Helicobacter pylori, H. pylori strain no 17, read-out: MIC
# [19] = Helicobacter pylori, H. pylori strain no 18, read-out: MIC
# [20] = Helicobacter pylori, H. pylori strain no 19, read-out: MIC
# [21] = Helicobacter pylori, H. pylori strain no 20, read-out: MIC
# [22] = Helicobacter pylori, H. pylori strain no 22, read-out: MIC
# [23] = Helicobacter pylori, H. pylori strain no 23, read-out: MIC
# [24] = Helicobacter pylori, H. pylori strain no 24, read-out: MIC
# [25] = Helicobacter pylori, H. pylori strain no 25, read-out: MIC
# [26] = Helicobacter pylori, H. pylori strain no 26, read-out: MIC
# [27] = Helicobacter pylori, H. pylori strain no 27, read-out: MIC
# [28] = Helicobacter pylori, H. pylori strain no 29, read-out: MIC
# [29] = Helicobacter pylori, H. pylori strain no 30, read-out: MIC
# [30] = Helicobacter pylori, H. pylori strain no 31, read-out: MIC
# [31] = Helicobacter pylori, H. pylori strain no 32, read-out: MIC
# [32] = Helicobacter pylori, H. pylori strain no 33, read-out: MIC
# [33] = Helicobacter pylori, H. pylori strain no 35, read-out: MIC
# [34] = Helicobacter pylori, H. pylori strain no 36, read-out: MIC
# [35] = Helicobacter pylori, H. pylori strain no 37, read-out: MIC
# [36] = Helicobacter pylori, H. pylori strain no 38, read-out: MIC
# [37] = Helicobacter pylori, H. pylori strain no 40, read-out: MIC
# [38] = Helicobacter pylori, H. pylori strain no 41, read-out: MIC
# [39] = Helicobacter pylori, H. pylori strain no 42, read-out: MIC
# [40] = Helicobacter pylori, H. pylori strain no 43, read-out: MIC
# [41] = Helicobacter pylori, H. pylori strain no 44, read-out: MIC
# [42] = Helicobacter pylori, H. pylori strain no 45, read-out: MIC
# [43] = Helicobacter pylori, H. pylori strain no 46, read-out: MIC
# [44] = Helicobacter pylori, H. pylori strain no 47, read-out: MIC
# [45] = Helicobacter pylori, H. pylori strain no 2, read-out: MIC
# [46] = Helicobacter pylori, H. pylori strain no 3, read-out: MIC
# [47] = Helicobacter pylori, H. pylori strain no 28, read-out: MIC
# [48] = Helicobacter pylori, H. pylori strain no 39, read-out: MIC
smiles,measurement,setting,value
CC[C@H]1OC(=O)[C@H](C)[C@@H](O[C@H]2C[C@@](C)(OC)[C@@H](O)[C@H](C)O2)[C@H](C)[C@@H](O[C@@H]2O[C@H](C)C[C@H](N(C)C)[C@H]2O)[C@](C)(OC)C[C@@H](C)C(=O)[C@H](C)[C@@H](O)[C@]1(C)O [Clarithromycin],MIC,[1]; H. pylori strain no 2,0.125 µg/mL
same,MIC,[1]; H. pylori strain no 28,0.125 µg/mL
same,MIC,[1]; Helicobacter pylori,0.125 µg/mL
same,MIC,[1]; [4],0.06 µg/mL
same,MIC,[1]; [5],0.06 µg/mL
same,MIC,[1]; [6],0.06 µg/mL
same,MIC,[1]; [7],0.06 µg/mL
same,MIC,[1]; [8],0.06 µg/mL
same,MIC,[1]; [9],0.06 µg/mL
same,MIC,[1]; [10],0.06 µg/mL
same,MIC,[1]; [11],0.06 µg/mL
same,MIC,[1]; [12],0.06 µg/mL
same,MIC,[1]; [13],0.06 µg/mL
same,MIC,[1]; [14],0.06 µg/mL
same,MIC,[1]; [15],0.06 µg/mL
same,MIC,[1]; [16],0.06 µg/mL
same,MIC,[1]; [17],0.06 µg/mL
same,MIC,[1]; [18],0.06 µg/mL
same,MIC,[1]; [19],0.06 µg/mL
same,MIC,[1]; [20],0.06 µg/mL
same,MIC,[1]; [21],0.06 µg/mL
same,MIC,"[1]; Helicobacter pylori, H. pylori strain no 21, read-out: MIC",0.06 µg/mL
same,MIC,[1]; [22],2 µg/mL
same,MIC,[1]; [23],0.06 µg/mL
same,MIC,[1]; [24],0.06 µg/mL
same,MIC,[1]; [25],0.06 µg/mL
same,MIC,[1]; [26],0.06 µg/mL
same,MIC,[1]; [27],0.06 µg/mL
same,MIC,[1]; [28],0.06 µg/mL
same,MIC,[1]; [29],0.06 µg/mL
same,MIC,[1]; [30],0.06 µg/mL
same,MIC,[1]; [31],0.06 µg/mL
same,MIC,[2]; H. pylori strain no 34,0.125 µg/mL
same,MIC,[2]; Helicobacter pylori,0.125 µg/mL
same,MIC,[2]; [32],0.06 µg/mL
same,MIC,[2]; [33],0.06 µg/mL
same,MIC,[2]; [34],0.06 µg/mL
same,MIC,[2]; [35],0.06 µg/mL
same,MIC,[2]; [36],0.5 µg/mL
same,MIC,[2]; [37],0.06 µg/mL
same,MIC,[2]; [38],4 µg/mL
same,MIC,[2]; [39],16 µg/mL
same,MIC,[2]; [40],16 µg/mL
same,MIC,[2]; [41],16 µg/mL
same,MIC,[2]; [42],8 µg/mL
same,MIC,[2]; [43],16 µg/mL
same,MIC,[2]; [44],16 µg/mL
Cc1ncc([N+](=O)[O-])n1CCO [Metronidazole],MIC,[1]; [4],1 µg/mL
same,MIC,[1]; [45],1 µg/mL
same,MIC,[1]; [46],1 µg/mL
same,MIC,[1]; [5],1 µg/mL
same,MIC,[1]; [6],4 µg/mL
same,MIC,[1]; [7],0.06 µg/mL
same,MIC,[1]; [8],0.06 µg/mL
same,MIC,[1]; [9],0.5 µg/mL
same,MIC,[1]; [10],1 µg/mL
same,MIC,[1]; [11],0.5 µg/mL
same,MIC,[1]; [12],0.25 µg/mL
same,MIC,[1]; [13],1 µg/mL
same,MIC,[1]; [14],1 µg/mL
same,MIC,[1]; [15],0.06 µg/mL
same,MIC,[1]; [16],0.06 µg/mL
same,MIC,[1]; [17],0.5 µg/mL
same,MIC,[1]; [18],1 µg/mL
same,MIC,[1]; [19],1 µg/mL
same,MIC,[1]; [23],0.06 µg/mL
same,MIC,[1]; [24],0.5 µg/mL
same,MIC,[1]; [25],1 µg/mL
same,MIC,[1]; [26],1 µg/mL
same,MIC,[1]; [27],0.06 µg/mL
same,MIC,[1]; [47],0.5 µg/mL
same,MIC,[1]; [28],1 µg/mL
same,MIC,[1]; [29],0.5 µg/mL
same,MIC,[1]; [30],0.25 µg/mL
same,MIC,[1]; [31],1 µg/mL
same,MIC,[2]; [32],32 µg/mL
same,MIC,"[2]; Helicobacter pylori, H. pylori strain no 34, read-out: MIC",256 µg/mL
same,MIC,[2]; [33],64 µg/mL
same,MIC,[2]; [34],64 µg/mL
same,MIC,[2]; [35],64 µg/mL
same,MIC,[2]; [36],64 µg/mL
same,MIC,[2]; [48],256 µg/mL
same,MIC,[2]; [37],64 µg/mL
same,MIC,[2]; [38],16 µg/mL
same,MIC,[2]; [39],1 µg/mL
same,MIC,[2]; [40],1 µg/mL
same,MIC,[2]; [41],0.5 µg/mL
same,MIC,[2]; [42],2 µg/mL
same,MIC,[2]; [43],32 µg/mL
same,MIC,[2]; [44],64 µg/mL
CSCCCCCN=C=S [Bertoin],activity as inducers relative to sulforaphane and sulforaphene,[3],less active
CSCCCN=C=S [iberverin],activity as inducers relative to sulforaphane and sulforaphene,[3],less active
CS(=O)(=O)CCCN=C=S [cheirolin],activity as inducers relative to sulforaphane and sulforaphene,[3],less active
C[S+]([O-])CCCCCN=C=S (stereo not drawn) [alyssin],activity as inducers relative to sulforaphane and sulforaphene,[3],less active
C[S+]([O-])CCCN=C=S (stereo not drawn) [iberin],activity as inducers relative to sulforaphane and sulforaphene,[3],less active
CS(=O)(=O)CCCCN=C=S [erysolin],activity as inducers relative to sulforaphane and sulforaphene,[3],less active
CC1(C)S[C@@H]2[C@H](NC(=O)[C@H](N)c3ccc(O)cc3)C(=O)N2[C@H]1C(=O)O [Amoxicillin],MIC,[1]; [4],0.06 µg/mL
same,MIC,[1]; [45],0.06 µg/mL
same,MIC,[1]; [46],0.06 µg/mL
same,MIC,[1]; [5],0.06 µg/mL
same,MIC,[1]; [6],0.06 µg/mL
same,MIC,[1]; [7],0.06 µg/mL
same,MIC,[1]; [8],0.06 µg/mL
same,MIC,[1]; [9],0.06 µg/mL
same,MIC,[1]; [11],0.06 µg/mL
same,MIC,[1]; [12],0.06 µg/mL
same,MIC,[1]; [13],0.06 µg/mL
same,MIC,[1]; [14],0.06 µg/mL
same,MIC,[1]; [15],0.06 µg/mL
same,MIC,[1]; [16],0.06 µg/mL
same,MIC,[1]; [17],0.06 µg/mL
same,MIC,[1]; [18],0.06 µg/mL
same,MIC,[1]; [19],0.06 µg/mL
same,MIC,[1]; [20],0.06 µg/mL
same,MIC,[1]; [21],0.06 µg/mL
same,MIC,[1]; [22],0.06 µg/mL
same,MIC,[1]; [23],0.06 µg/mL
same,MIC,[1]; [24],0.06 µg/mL
same,MIC,[1]; [25],0.06 µg/mL
same,MIC,[1]; [26],0.06 µg/mL
same,MIC,[1]; [27],0.06 µg/mL
same,MIC,[1]; [47],0.06 µg/mL
same,MIC,[1]; [29],0.06 µg/mL
same,MIC,[1]; [30],0.06 µg/mL
same,MIC,[1]; [31],0.06 µg/mL
same,MIC,[2]; [32],0.06 µg/mL
same,MIC,[2]; [33],0.06 µg/mL
same,MIC,[2]; [34],0.06 µg/mL
same,MIC,[2]; [35],0.06 µg/mL
same,MIC,[2]; [48],0.06 µg/mL
same,MIC,[2]; [37],0.06 µg/mL
same,MIC,[2]; [38],0.06 µg/mL
same,MIC,[2]; [39],0.06 µg/mL
same,MIC,[2]; [40],0.06 µg/mL
same,MIC,[2]; [41],0.06 µg/mL
same,MIC,[2]; [42],0.06 µg/mL
same,MIC,[2]; [43],0.06 µg/mL
same,MIC,[2]; [44],0.06 µg/mL
